Assay results published in patent US9724262B2, “Methods of diagnosing and treating neonatal reversion to fetal consciousness” (The Regents of the University of California, priority 2013, dated 2017).

Columns and labels:
healthy neonatal foal = assay: Neurobehavioural (NB) scoring of a healthy neonatal foal infused i.v. with allopregnanolone; format: in vivo, Quarter Horse
Method: A healthy neonatal 50 kg Quarter Horse colt from the research herd at the School of Veterinary Medicine, University of California, Davis was selected for the infusion. The foal was born from a healthy Quarter Horse mare with a normal gestational length without complications, and normal observed parturition except that the placental passage was prolonged. Although retention of the placenta for 7 h post birth is not considered normal by most standards, the placenta was evaluated and determined to be complete and normal. […] The foal was deemed healthy based upon complete physical and neurological examinations immediately post birth. […] Repeat physical and neurological examinations at age 6 h, immediately prior to infusion, were also normal.
(§1) Intravenous catheters were placed aseptically in the right jugular vein for sample collection and in the left jugular vein for infusion of allopregnanolone. Allopregnanolone (5 alpha-pregnan-3 alpha-ol-20-one; Steraloids Inc., Newport, R.I., USA) was dissolved in an ethanol-based solution to a total concentration of 9 mg/ml. Infused dose and concentration of allopregnanolone in this foal were determined based on concentrations reported in in vivo studies in the modulation of the HPA axis in male rats (Naert, et al., (2007) Psychoneuroendocrinology 32, 1062-1078). An initial bolus of 0.05 mg/kg bwt i.v. of allopregnanolone was given followed by a constant rate infusion (CRI) of 0.02 mg/kg bwt/min using an infusion pump. Based on clinical effects of the initial dosage, a second bolus of 0.1 mg/kg bwt i.v. was given after 5 min and followed by a CRI of 0.04 mg/kg bwt/min for 5 min. The infusion was discontinued for 30 min to allow observation of any neurobehavioural (NB) alterations, and then a final bolus of 0.2 mg/kg bwt i.v. was given.
Neurobehavioural alterations were recorded and graded through a NB scoring system developed by the authors for the assessment of foals with NMS (Table 2). From preliminary work, foals with NMS had scores>8 from a range of 0 (normal foal) to 20 (comatose with paroxysmal activity). Mentation was defined as: normal if the foal was alert and responsive; quiet to obtunded if the foal was apparently lethargic but responsive to external stimuli (e.g., touch, sound); stuporous if level of consciousness was decreased but responsive to painful stimuli (e.g. pinching skin with haemostats); and comatose if the foal lost consciousness and was unresponsive to any stimuli. Paroxysmal activity was defined as abnormal events such as seizures or seizure-like activity, rhythmic limb movements, tremors or paddling. The NB scores were calculated at 5 min intervals throughout the infusion period. Following the infusion, the foal was observed hourly for the first 6 h and then at 12 h intervals for 2 days.
For NB comparison, a second age-matched clinically healthy neonatal Quarter Horse colt was infused with 99.9% ethanol diluted with 0.9% saline to a final concentration of 5% ethanol without allopregnanolone. Infusion of this solution followed the same protocol (dosage [based on 5% ethanol] and rate) of administration as for the first foal. The study was approved by an Animal Care and Use protocol from University of California, Davis.

[1] = Plasma steroid and hormone concentrations (LC-MS) in the foal infused with allopregnanolone; format: in vivo, Quarter Horse
Method: as §1
Heparinised blood samples were collected at birth, age 6 h and at 15 min intervals during the infusion. Blood was immediately centrifuged following collection and plasma stored at −80° C. until analysed by liquid chromatography mass spectrometry (LC-MS) utilising on-line sample extraction by turbulent flow chromatography (TFC) and detection by select reaction monitoring (SRM) on a triple quadrupole mass spectrometer. […] Free concentrations of 34 steroids were monitored in one analytical method over a 24-min run time. Detection and quantitation was accomplished using 3 or more SRM transitions per compound for all compounds other than 17-hydroxy pregnenolone where single ion monitoring (SIM) was utilised. This method was validated and the following assessed for each analyte: linearity, limit of detection, limit of quantitation, accuracy, precision, matrix effects, extraction recovery and potential endogenous interferences. […]

[2] = age 6 ½ h, 15 minutes post initial infusion

CC(=O)[C@H]1CC[C@H]2[C@@H]3CC[C@H]4C[C@H](O)CC[C@]4(C)[C@H]3CC[C@]12C [allopregnanolone, 5 alpha-pregnan-3 alpha-ol-20-one]
Time after cessation of the infusion to signs of increased responsiveness (healthy neonatal foal; after cessation of the infusion): ≤ 8 min | Neurobehavior score (healthy neonatal foal; age 6 ¼ h, bolus 0.05 mg/kg IV, CRI 0.02 mg/kg/min, score scale 0-20): 14 | Neurobehavior score (healthy neonatal foal; [2]): 8 | Neurobehavior score (healthy neonatal foal; age 6 ¾ h, bolus 0.2 mg/kg IV): 15 | NB score (healthy neonatal foal; by 15 min after cessation of the infusion or the final bolus, standing, mild obtundation): 9 | NB score (healthy neonatal foal; by 30 min after infusion, foal appeared normal): 0 | NB score (healthy neonatal foal; infusion of higher concentrations (0.1 and 0.2 mg/kg bwt), foal recumbent, stuporous, unresponsive): 16 | Long-term NB effects following the infusion (healthy neonatal foal; observed hourly for 6 h, then at 12 h intervals for 2 days): No long-term NB effects were observed | Allopregnanolone plasma concentration ([1]; age 6 ¼ h, bolus 0.05 mg/kg IV, CRI 0.02 mg/kg/min): 478,909 pg/mL | Allopregnanolone plasma concentration [1, 2]: 126,566 pg/mL | Allopregnanolone plasma concentration ([1]; age 6 ¾ h, bolus 0.2 mg/kg IV): 466,208 pg/mL
